Experimental data published in patent US10441787B2, “Neuromodulation device” (GALVANI BIOE[…], priority 2015, dated 2019).
Entries after “also recorded” stand apart in the source; their conditions may differ.

Tested on: guinea pig airway smooth muscle tone
Test: In-vivo model of baseline airway smooth muscle tone
Design: dose or concentration left out as unconfirmed
Settings: anesthetized guinea pigs; atropine delivered selectively to the trachea via Krebs buffer perfusion; isometric tension of tracheal rings 6 and 7
From the text: FIG. 10: Schematic illustration of the method for assessing vagally-mediated baseline airay smooth muscle tone in anesthetized guinea pigs. (As described in, Mazzone and Canning, Curr. Protoc. Pharmacol. 2002. May 1; Chapter 5: Unit 5.26.)
Methods for studying vagally-mediated bronchospasm in anesthetized guinea pigs have been described in detail elsewhere (Mazzone and Canning, Curr Protoc Pharmacol. 2002 May 1; Chapter 5:Unit 5.26; Auton Neurosci. 2002 Aug. 30; 99(2):91-101) and shown in FIG. 10. Guinea pigs are anesthetized with urethane (1.5 g/kg ip). The trachea and vagus nerves are visualized by a midline incision in the neck. The trachea is cannulated and connected to a constant volume ventilator (6 mL/kg body weight). The animals are then paralyzed with succinylcholine (2.5 mg/kg sc). An artery and vein are cannulated to monitor cardiovascular parameters and for drug delivery. The vagus nerves are placed on bipolar electrodes. […] Bronchospasm is recorded as a percentage increase in pulmonary inflation pressure.
Using the method illustrated in FIG. 10, the portion of the trachea where isometric tension was measured (rings 6 and 7 caudal to the larynx) was perfused with warmed (37° C.), oxygenated Krebs buffer, which was used for selective delivery of atropine ([…]) to the trachea. […]

CN1[C@@H]2CC[C@H]1C[C@@H](OC(=O)C(CO)c1ccccc1)C2 (stereo partly shown) [atropine]
baseline airway smooth muscle tone: decrease in baseline airway smooth muscle tone; also recorded: Inhibition of guinea pig airway smooth muscle tone
